Data as given in patent publication US6784137B2, “6-aryl-4-aminopicolinates and their use as herbicides” (Dow AgroSciences LLC, priority 2001, dated 2004).

First: COC(=O)c1nc(-c2nccs2)cc(NC(C)=O)c1Cl [Compound 103, Methyl 4-acetamido-3-chloro-6-(2-thiazolyl)pyridine-2-carboxylate]
Second: COC(=O)c1nc(-c2nccs2)cc(N)c1Cl [Compound 123, Methyl 4-amino-3-chloro-6-(2-thiazolyl)pyridine-2-carboxylate]
The melting point of the first is lower: 187 to 188 °C for the first, 195 to 197 °C for the second.

First: COC(=O)c1nc(-c2ccco2)c(Cl)c(N)c1Cl [Compound 104, Methyl 4-amino-3,5-dichloro-6-(2-furanyl)pyridine-2-carboxylate]
Second: COC(=O)c1nc(-c2cccs2)c(Cl)c(N)c1Cl [Compound 105, Methyl 4-amino-3,5-dichloro-6-(2-thienyl)pyridine-2-carboxylate]
The melting point of the first is lower: 116 to 117 °C for the first, 132 °C for the second.

Compared with `COC(=O)c1nc(-c2cccs2)cc(N)c1Cl` [Compound 106, Methyl 4-amino-3-chloro-6-(2-thienyl)pyridine-2-carboxylate], `COC(=O)c1nc(-c2ccsc2)cc(N)c1Cl` [Compound 122, Methyl 4-amino-3-chloro-6-(3-thienyl)pyridine-2-carboxylate] is lower in melting point: 138 to 139 °C for the first, 129 °C for the second.

First: COC(=O)c1nc(-c2ccnc(OC)c2)cc(N)c1Cl [Compound 107, Methyl 4-amino-3-chloro-6-(6-methoxy-4-pyridinyl)pyridine-2-carboxylate]
Second: COC(=O)c1nc(-c2ccc(O)nc2)cc(N)c1Cl [Compound 108, Methyl 4-amino-3-chloro-6-(6-hydroxy-3-pyridinyl)pyridine-2-carboxylate]
The melting point of the first is lower: 185 to 187 °C for the first, 251 to 252 °C for the second.

Compared with `COC(=O)c1nc(-c2ccccn2)cc(N)c1Cl` [Compound 109, Methyl 4-amino-3-chloro-6-(2-pyridinyl)pyridine-2-carboxylate], `COC(=O)c1nc(-c2ccco2)cc(N)c1Cl` [Compound 110, Methyl 4-amino-3-chloro-6-(2-furanyl)pyridine-2-carboxylate] is lower in melting point: 142 to 145 °C for the first, 117 °C for the second.

Compared with `COC(=O)c1nc(-c2nccs2)c(F)c(N)c1Cl` [Compound 113, Methyl 4-amino-3-chloro-5-fluoro-6-(2-thiazolyl)pyridine-2-carboxylate], `COC(=O)c1nc(-c2cnn(C)c2)cc(N)c1Cl` [Compound 124, Methyl 4-amino-3-chloro-6-(1-methyl-1H-pyrazol-4-yl)pyridine-2-carboxylate] is lower in melting point: 185 to 187 °C for the first, 174 to 176 °C for the second.

First: COC(=O)c1nc(-c2cncnc2)cc(NC(C)=O)c1Cl [Compound 117, Methyl 4-acetamido-3-chloro-6-(5-pyrimidinyl)pyridine-2-carboxylate]
Second: COC(=O)c1nc(-c2cncnc2)cc(N)c1Cl [Compound 126, Methyl 4-amino-3-chloro-6-(5-pyrimidinyl)pyridine-2-carboxylate]
The melting point of the first is lower: 178 to 185 °C for the first, 195 °C for the second.

First: COC(=O)c1nc(-c2cc3ccccc3s2)cc(N)c1Cl [Compound 125, Methyl 4-amino-3-chloro-6-(2-benzothienyl)pyridine-2-carboxylate]
Second: Cc1ccccc1-c1cc(N)c(Cl)c(C(=O)O)n1 [Compound 165, 4-Amino-3-chloro-6-(2-methylphenyl)pyridine-2-carboxylic acid]
The melting point of the first is lower: 177 to 178 °C for the first, 188 to 189 °C for the second.

Going from `Nc1c(Cl)c(C(=O)O)nc(-c2ccccc2)c1Cl` [Compound 133, 4-Amino-3,5-dichloro-6-(phenyl)pyridine-2-carboxylic acid] to `Nc1c(Cl)c(C(=O)O)nc(-c2cccs2)c1Cl` [Compound 208, 4-Amino-3,5-dichloro-6-(2-thienyl)pyridine-2-carboxylic acid], the melting point rises from 135 °C to 144 °C.

First: Nc1cc(-c2ccccc2Cl)nc(C(=O)O)c1Cl [Compound 140, 4-Amino-3-chloro-6-(2-chlorophenyl)pyridine-2-carboxylic acid]
Second: Nc1cc(-c2ccccc2F)nc(C(=O)O)c1Cl [Compound 142, 4-Amino-3-chloro-6-(2-fluorophenyl)pyridine-2-carboxylic acid]
The melting point of the first is higher: 196 to 197 °C for the first, 121 to 122 °C for the second.

First: CC(=O)c1ccc(-c2cc(N)c(Cl)c(C(=O)O)n2)cc1 [Compound 144, 4-Amino-3-chloro-6-(4-acetylphenyl)pyridine-2-carboxylic acid]
Second: Nc1cc(-c2ccc(F)cc2)nc(C(=O)O)c1Cl [Compound 156, 4-Amino-3-chloro-6-(4-fluorophenyl)pyridine-2-carboxylic acid]
The melting point of the first is higher: 177 to 178 °C for the first, 170 to 171 °C for the second.

First: CC(C)c1ccc(-c2cc(N)c(Cl)c(C(=O)O)n2)cc1 [Compound 147, 4-Amino-3-chloro-6-(4-isopropylphenyl)pyridine-2-carboxylic acid]
Second: Nc1cc(-c2ccc(CO)cc2)nc(C(=O)O)c1Cl [Compound 159, 4-Amino-3-chloro-6-(4-hydroxymethylphenyl)pyridine-2-carboxylic acid]
The melting point of the first is lower: 142 to 143 °C for the first, 181 to 182 °C for the second.

Compared with `Nc1cc(-c2cccc(C(F)(F)F)c2)nc(C(=O)O)c1Cl` [Compound 157, 4-Amino-3-chloro-6-[3-(trifluoromethyl)phenyl]pyridine-2-carboxylic acid], `Nc1cc(-c2ccc(OC(F)(F)F)cc2)nc(C(=O)O)c1Cl` [Compound 174, 4-Amino-3-chloro-6-[4-(trifluoromethoxy)phenyl]pyridine-2-carboxylic acid] is lower in melting point: 175 to 176 °C for the first, 164 to 165 °C for the second.

Compared with `Nc1cc(-c2ccc(CF)cc2)nc(C(=O)O)c1Cl` [Compound 160, 4-Amino-3-chloro-6-[4-(fluoromethyl)phenyl]pyridine-2-carboxylic acid], `Cc1ccc(-c2cc(N)c(Cl)c(C(=O)O)n2)cc1Cl` [Compound 164, 4-Amino-3-chloro-6-(3-chloro-4-methylphenyl)pyridine-2-carboxylic acid] is higher in melting point: 156 to 157 °C for the first, 188 °C for the second.

First: Nc1cc(-c2cc(F)cc(F)c2)nc(C(=O)O)c1Cl [Compound 167, 4-Amino-3-chloro-6-(3,5-difluorophenyl)pyridine-2-carboxylic acid]
Second: Nc1cc(-c2c(F)cccc2F)nc(C(=O)O)c1Cl [Compound 169, 4-Amino-3-chloro-6-(2,6-difluorophenyl)pyridine-2-carboxylic acid]
The melting point of the first is higher: 182 to 183 °C for the first, 165 to 166 °C for the second.

Compared with `Nc1cc(-c2cc(Cl)ccc2Cl)nc(C(=O)O)c1Cl` [Compound 177, 4-Amino-3-chloro-6-(2,5-dichlorophenyl)pyridine-2-carboxylic acid], `Cc1ccc(-c2cc(N)c(Cl)c(C(=O)O)n2)c(Cl)c1` [Compound 190, 4-Amino-3-chloro-6-(2-chloro-4-methylphenyl)pyridine-2-carboxylic acid] is lower in melting point: 213 to 215 °C for the first, 71 to 72 °C for the second.

First: Nc1cc(-c2ccc(Cl)cc2C(F)(F)F)nc(C(=O)O)c1Cl [Compound 182, 4-Amino-3-chloro-6-(4-chloro-2-(trifluoromethyl)phenyl)pyridine-2-carboxylic acid]
Second: COc1cc(Cl)ccc1-c1cc(N)c(Cl)c(C(=O)O)n1 [Compound 186, 4-Amino-3-chloro-6-(4-chloro-2-methoxyphenyl)pyridine-2-carboxylic acid]
The melting point of the first is lower: 178 to 180 °C for the first, 182 to 183 °C for the second.

First: COc1ccc(-c2cc(N)c(Cl)c(C(=O)O)n2)cc1OC [Compound 185, 4-Amino-3-chloro-6-(3,4-dimethoxyphenyl)pyridine-2-carboxylic acid]
Second: COc1ccc(-c2cc(N)c(Cl)c(C(=O)O)n2)cc1C [Compound 193, 4-Amino-3-chloro-6-(4-methoxy-3-methylphenyl)pyridine-2-carboxylic acid]
The melting point of the first is higher: 182 to 183 °C for the first, 131 °C for the second.

Compared with `Nc1cc(-c2ccc3c(c2Cl)OCO3)nc(C(=O)O)c1Cl` [Compound 187, 4-Amino-3-chloro-6-(2-chloro-3,4-methylenedioxyphenyl)pyridine-2-carboxylic acid], `Nc1cc(-c2ccc3c(c2)CCO3)nc(C(=O)O)c1Cl` [Compound 201, 4-Amino-3-chloro-6-(2,3-dihydro-5-benzofuranyl)pyridine-2-carboxylic acid] is lower in melting point: 226 to 227 °C for the first, 218 to 220 °C for the second.

First: Nc1cc(-c2ccc3c(c2)CCC3)nc(C(=O)O)c1Cl [Compound 188, 4-Amino-3-chloro-6-(5-indanyl)pyridine-2-carboxylic acid]
Second: COCc1cc(-c2cc(N)c(Cl)c(C(=O)O)n2)ccc1Cl [Compound 195, 4-Amino-3-chloro-6-(4-chloro-3-methoxymethylphenyl)pyridine-2-carboxylic acid]
The melting point of the first is higher: 204 to 205 °C for the first, 162 °C for the second.

First: Cc1cc(F)c(-c2cc(N)c(Cl)c(C(=O)O)n2)cc1Cl [Compound 192, 4-Amino-3-chloro-6-(5-chloro-2-fluoro-4-methylphenyl)pyridine-2-carboxylic acid]
Second: COc1ccc(OC)c(-c2cc(N)c(Cl)c(C(=O)O)n2)c1 [Compound 194, 4-Amino-3-chloro-6-(2,5-dimethoxyphenyl)pyridine-2-carboxylic acid]
The melting point of the first is lower: 173 to 175 °C for the first, 185 to 186 °C for the second.

With `COc1ccc(-c2nc(C(=O)O)c(Cl)c(N)c2Cl)cc1` [Compound 134, 4-Amino-3,5-dichloro-6-(4-methoxyphenyl)pyridine-2-carboxylic acid] the melting point was 139 to 140 °C (dec.).
For `Nc1cc(-c2ccccc2)nc(C(=O)O)c1Cl` [Compound 135, 4-Amino-3-chloro-6-(phenyl)pyridine-2-carboxylic acid], the melting point was 180 to 181 °C (dec.).
With `Nc1cc(-c2ccc(F)cc2F)nc(C(=O)O)c1Cl` [Compound 145, 4-Amino-3-chloro-6-(2,4-difluorophenyl)pyridine-2-carboxylic acid] the melting point was 206 °C (dec.).
For `Nc1cc(-c2ccncc2)nc(C(=O)O)c1Cl` [Compound 209, 4-Amino-3-chloro-6-(4-pyridinyl)pyridine-2-carboxylic acid], the melting point was 155 °C (dec.).
With `COc1ccc(-c2cc(N)c(Cl)c(C(=O)O)n2)cn1` [Compound 213, 4-Amino-3-chloro-6-(6-methoxy-3-pyridinyl)pyridine-2-carboxylic acid] the melting point was 110 °C (dec.).
In the case of `Nc1cc(-c2ccccn2)nc(C(=O)O)c1Cl` [Compound 214, 4-Amino-3-chloro-6-(2-pyridinyl)pyridine-2-carboxylic acid], the melting point is reported as 185 °C (dec.).
